# Test results from patent US20050169964A1, “Antibiotic calcium phosphate coating” (Howmedica Osteonics Corp., priority 2001, published 2005).
# B1: OP-1® Osteogenic graft material: Osteogenic protein-1, a 36 kD homodimer protein in the TGI-β super-family; a bone morphogenic protein (protein, UniProt P18075 293-431, looked up)
# Bone morphogenetic protein 7: STGSKQRSQNRSKTPKNQEALRMANVAENSSSDQRQACKKHELYVSFRDLGWQDWIIAPEGYAAYYCEGECAFPLNSYMNATNHAIVQTLVHFINPETVPKPCCAPTQLNAISVLYFDDSSNVILKKYRNMVVRACGCH
# modifications: graft material
# notes: Osteogenic protein-1, a 36 kD homodimer protein in the TGI-β super-family; a bone morphogenic protein
# Tests used:
# [1] = tested on: Staphylococcus aureus (ATCC strain #6538); assay: modified Kirby Bauer susceptibility model, zone of inhibition around antibiotic containing HA disk; type: cell-based; conditions: for Zone of Inhibition (mm): antibiotic absorbed into precipitated crystalline HA coating, Mueller-Hinton agar, 24 hr at 37° C.
# Experimental: 1.2 Grams of tobramycin sulfate was dissolved in 12 milliliters of sterile deionized water (100 mg/ml). […] Ten (10) μl of solution was pipetted onto the surface of each of the […] coated disks and allowed to dry. […] The test coupons were then placed into a buffered saline at 37° C. immediately after the absorption process was completed. […] In the well-known Kirby Bauer Susceptibility Model test organisms were propagated and handled in accordance with ATCC recommendations for broth media, agar, and incubation specifications. […] Each seeded plate was challenged with both an antibiotic containing HA disk and a non-antibiotic containing HA disk, which served as a control. Samples were tested in duplicate (i.e., two plates per organism). Following incubation for 24 hr. at 37° C., the plates were examined for zones of inhibition around the disks. The zone of inhibition is defined as the distance between the test disk and the edge of bacterial growth. It is common for a hazy, or “ghost” zone to exist between the areas of complete inhibition and full bacterial growth. This “ghost” zone is the result of partial inhibition and is not included in the measurement of the zone of inhibition.
# [2] = binding of [125I]OP-1 to PA coated titanium disks (scintillation counting); conditions: FIG. 3 time course
# Experimental: Materials and Methods—Preparation of implant test articles: Titanium alloy (Ti6A14V) disks/coupons 5 mm in diameter and 3 mm thick were coated both sides with PA coating using the method of Example I. The thickness of the coating surface was determined by SEM to be nominally 20 μm to 50 μm.
# Determination of the binding capacity of OP-1® Osteogenic graft material: A pre-mixed blend of unlabelled OP-1® Osteogenic graft material with iodine [^125I] for tracking purposes was used. The OP-1® Osteogenic graft material in a lactose solution was pipetted on PA coated disks in triplicate. A range of OP-1® Osteogenic graft material incubation time and concentration treatment was applied to determine the time-course and binding capacity of the graft material on the PA coated disk. Following the incubation, each coupon was washed with lactose solution and the washes were collected in a scintillation vial. 10 ml of the scintillation cocktail was added to each test article and wash sample and the scintillation counts were measured in a liquid scintillation counter (LSC) to calculate the amount of OP-1® Osteogenic graft material bound to the PA coated disk.
# [3] = tested on: adductor muscles (intramuscular pouch); type: in vivo, Long-Evans male rats
# Excerpt: In-vivo study of OP-1® Osteogenic graft material coated implants: Freshly reconstituted OP-1® Osteogenic graft material in lactose solution was loaded onto each surface of the PA coated disk using sterile pipettes. The solution evenly spaced across the dry surface and was completely absorbed. Sixteen Long-Evans male rats with body weight 300-390 g were used in the study. The animals were anesthetized and an incision was made on the medial thigh to prepare intramuscular pouch within the adductor muscles for placement of the implant articles, on both contra-lateral limbs. A total of 32 implants were divided into 4 groups: (A) titanium disks; (B) titanium disks coated with PA, (C) titanium disks coated with PA plus OP-1® Osteogenic graft material (40 μg), (D) OP-1® Osteogenic graft material solution (40 μg). For Group C, the OP-1® Osteogenic graft material solution was directly pipeted on each Ti disk immediately before implantation. The solution was absorbed within 1 minute. For Group D, OP-1® Osteogenic graft material solution was dropped into the muscular pouch. The same amount of identical carrier solution for OP-1® Osteogenic graft material was loaded on disks of Groups A and B. After implantation, the pouch was closed with 3-0 chromic sutures, and the wound was closed in layers. The rats were housed individually and allowed unrestricted activity immediately after […]. All the animals were sacrificed 4 weeks postoperatively. The complete limb was disarticulated from hip joint and x-rayed. The implants with their surrounding tissues were retrieved. All implants were processed for undecalcified thin section histology using EXAKT technique. The slides were stained with Stevenel's blue/van Gieson's picrofuchsin method for histological analysis. Bone was stained in red color and fibrous tissue in blue. Half of the specimens of Group D were decalcified and embedded in paraffin. Sections were stained with hematoxylin and eosin.
# [4] = precipitation of OP-1 protein in solution; type: physicochemical
molecule,measurement,setting,value
NC[C@H]1O[C@H](O[C@H]2[C@H](O)[C@@H](O[C@H]3O[C@H](CO)[C@@H](O)[C@H](N)[C@H]3O)[C@H](N)C[C@@H]2N)[C@H](N)C[C@@H]1O [Tobramycin],biological activity of released antibiotic,[1]; after absorption into the hydroxyapatite structure,remained biologically active
same,Zone of Inhibition (mm),[1],10 mm
N[C@@H](C(=O)N[C@@H]1C(=O)N2C(C(=O)O)=C(Cl)CS[C@H]12)c1ccccc1 [Cefaclor],Zone of Inhibition (mm),[1],20.5 mm
Penicillin [Penicillin Potassium Salt],Zone of Inhibition (mm),[1],29 mm
Penicillin [Penicillin Sodium Salt],Zone of Inhibition (mm),[1],28 mm
O=C(O)c1cn(C2CC2)c2cc(N3CCNCC3)c(F)cc2c1=O [Ciprofloxacin],Zone of Inhibition (mm),[1],15.5 mm
Penicillin [Penicillin Procaine],Zone of Inhibition (mm),[1],26.5 mm
Cn1nnnc1SCC1=C(C(=O)O)N2C(=O)[C@@H](NC(=O)[C@H](O)c3ccccc3)[C@H]2SC1 [Cefamandole],Zone of Inhibition (mm),[1],25 mm
CC(=O)OCC1=C(C(=O)O)N2C(=O)[C@@H](NC(=O)CCC[C@@H](N)C(=O)O)[C@H]2SC1 [Cephalosporin C],Zone of Inhibition (mm),[1],11.5 mm
CN[C@H](CC(C)C)C(=O)N[C@H]1C(=O)N[C@@H](CC(N)=O)C(=O)N[C@H]2C(=O)N[C@H]3C(=O)N[C@H](C(=O)N[C@H](C(=O)O)c4cc(O)cc(O)c4-c4cc3ccc4O)[C@H](O)c3ccc(c(Cl)c3)Oc3cc2cc(c3O[C@@H]2O[C@H](CO)[C@@H](O)[C@H](O)[C@H]2O[C@H]2C[C@](C)(N)[C@H](O)[C@H](C)O2)Oc2ccc(cc2Cl)[C@H]1O [Vancomycin],Zone of Inhibition (mm),[1],10.5 mm
CC1=C(C(=O)O)N2C(=O)[C@@H](NC(=O)[C@H](N)c3ccccc3)[C@H]2SC1 [Cephalexin],Zone of Inhibition (mm),[1],19 mm
Penicillin [Penicillin Benzathine],Zone of Inhibition (mm),[1],22.5 mm
B1,time after loading at which maximal binding to PA is achieved,[2],5 h
same,extension of new bone surrounding the disks,"[3]; Group C: titanium disks coated with PA plus OP-1 (40 μg), radiographic, 4 weeks",≤ 10 mm
same,inflammation in the specimens,"[3]; rat, in vivo",no inflammation
same,incidence of bone formation,"[3]; the two groups treated with OP-1 (40 μg; Groups C and D), 4 weeks",100%
same,concentration over which protein spontaneously precipitates,[4],over 5 mg/mL
